Data as given in PubChem BioAssay (NCI).
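Dose response: 5 concentrations. Exposure: 48 h. Format: 96-well plates. Endpoint: linear interpolation; highest concentration if not reached. TGI denotes the concentration required for complete inhibition of growth.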

What was measured:
Assay in all cases: inhibition of tumour cell growth, NCI panel, 48 h
A549 NSCLC = tested on: A549 NSCLC
BT-549 breast = tested on: BT-549 breast
CAKI-1 renal = tested on: CAKI-1 renal
HOP-92 NSCLC = tested on: HOP-92 NSCLC
HS 578T breast = tested on: HS 578T breast
IGROV1 ovarian = tested on: IGROV1 ovarian
KM12 colon = tested on: KM12 colon
MDA-MB-435 = tested on: MDA-MB-435
OVCAR-3 ovarian = tested on: OVCAR-3 ovarian
OVCAR-4 ovarian = tested on: OVCAR-4 ovarian
OVCAR-5 ovarian = tested on: OVCAR-5 ovarian
OVCAR-8 ovarian = tested on: OVCAR-8 ovarian
SF-268 CNS = tested on: SF-268 CNS
SK-OV-3 ovarian = tested on: SK-OV-3 ovarian
SN12C renal = tested on: SN12C renal
SNB-19 CNS = tested on: SNB-19 CNS
UACC-62 melanoma = tested on: UACC-62 melanoma
UO-31 renal = tested on: UO-31 renal

Row | Compound | TGI (A549 NSCLC) | TGI (BT-549 breast) | TGI (CAKI-1 renal) | TGI (HOP-92 NSCLC) | TGI (HS 578T breast) | TGI (IGROV1 ovarian) | TGI (KM12 colon) | TGI (MDA-MB-435) | TGI (OVCAR-3 ovarian) | TGI (OVCAR-4 ovarian) | TGI (OVCAR-5 ovarian) | TGI (OVCAR-8 ovarian) | TGI (SF-268 CNS) | TGI (SK-OV-3 ovarian) | TGI (SN12C renal) | TGI (SNB-19 CNS) | TGI (UACC-62 melanoma) | TGI (UO-31 renal)
1 | NC(N)=N/N=C/c1c(-c2ccccc2[N+](=O)[O-])nc2sccn12 | > 100 µM | > 100 µM | > 100 µM | > 100 µM | > 100 µM | > 100 µM | 46.9 µM | 35.1 µM | > 100 µM | > 100 µM | > 100 µM | > 100 µM | > 100 µM | > 100 µM | > 100 µM | 77.4 µM | 32.7 µM | 90.3 µM
2 | CC(C)(C)N(Cc1ccccc1)C(=O)/C=C\S(=O)c1ccccc1 (stereo not given) | 25.4 µM | 12.9 µM | 18.4 µM | 10.8 µM | 7.19 µM | 17.8 µM | 18.1 µM | 11.3 µM | 7.41 µM | 9.25 µM | 28.8 µM | 4.16 µM | 6.96 µM | 19.9 µM | 8.66 µM | 23.6 µM | 15.2 µM | 7.71 µM
3 | N=c1sc2ccccc2n1CCS (tested in a mixture with another compound) | 37.3 µM | 48.4 µM | 45.8 µM | 38.4 µM | > 100 µM | 27.5 µM | 35.5 µM | 36.3 µM | 40.9 µM | 46.9 µM | 57.3 µM | 31.8 µM | 49.1 µM | 53.6 µM | 59.4 µM | 37.6 µM | 26.9 µM | 25.8 µM
4 | C=C1CC[C@](C)(O)[C@@]2(C)CC[C@H]3C(=C(C)C)C(=O)C[C@]3(C)C[C@H]12 | > 50 µM | > 50 µM | > 50 µM | > 50 µM | > 50 µM | > 50 µM | > 50 µM | > 50 µM | > 50 µM | > 50 µM | > 50 µM | > 50 µM | > 50 µM | > 50 µM | > 50 µM | > 50 µM | > 50 µM | > 50 µM
5 | Cc1ccc2c(c1C)C(=O)C1(C2)Cc2ccc3c(c2C1=O)CCC3 (stereo not given) | > 100 µM | > 100 µM | > 100 µM | > 100 µM | > 100 µM | > 100 µM | > 100 µM | > 100 µM | > 100 µM | > 100 µM | > 100 µM | > 100 µM | > 100 µM | > 100 µM | > 100 µM | > 100 µM | > 100 µM | > 100 µM
6 | C=C1c2nc3ccccc3n2C=C(c2ccc(OC)cc2)N1c1ccc(OCCN2CCCCC2)cc1 | > 84.6 µM | > 100 µM | > 100 µM | > 82 µM | > 100 µM | > 100 µM | > 100 µM | > 74.9 µM | > 100 µM | > 100 µM | > 100 µM | > 100 µM | > 100 µM | > 100 µM | > 100 µM | > 100 µM | > 100 µM | > 48.2 µM
7 | COc1ccc2c(c1)/C(=C/c1c(O)[nH]c(=S)[nH]c1=O)C=N2 | > 100 µM | > 100 µM | > 100 µM | > 100 µM | > 100 µM | > 100 µM | > 100 µM | > 100 µM | > 100 µM | > 100 µM | > 100 µM | > 100 µM | 61.8 µM | > 100 µM | > 100 µM | > 100 µM | > 100 µM | > 100 µM
8 | COc1cc2nc3n(c2cc1OC)C(O)c1c(Cl)nc(SC)nc1S3 (stereo not given) | 48 µM | 9.37 µM | > 45.4 µM | 68.3 µM | > 100 µM | 13 µM | > 100 µM | > 64.3 µM | 13.3 µM | > 39 µM | > 95.1 µM | 7.06 µM | > 100 µM | 30.8 µM | 21 µM | > 37.7 µM | 25.2 µM | 13.2 µM
9 | CC(C)=CCC[C@@H](C)[C@H]1CC[C@@]2(C)[C@@H]3CC[C@H]4C(C)(C)[C@@H](O)CC[C@@]45C[C@@]35CC[C@]12C | 48.1 µM | 55.6 µM | > 100 µM | 44.2 µM | > 100 µM | 40.5 µM | > 100 µM | > 68.8 µM | > 100 µM | > 100 µM | > 100 µM | 42.6 µM | > 76.4 µM | > 100 µM | 41.8 µM | > 100 µM | > 100 µM | > 66.2 µM
10 | C=CCN1C(=O)CC2[C@@H]3CCc4cc(O)ccc4C3CC[C@]2(C)C1=O (stereo not given in full) | > 10 µM | > 10 µM | > 10 µM | > 10 µM | > 10 µM | > 10 µM | > 10 µM | > 10 µM | > 10 µM | > 10 µM | > 10 µM | > 10 µM | > 10 µM | > 10 µM | > 10 µM | > 10 µM | > 10 µM | > 10 µM
